Assay results: US9221810B2, “Substituted bicyclic aromatic compounds as S-nitrosoglutathione reductase inhibitors” (Nivalis Therapeutics, Inc., priority 2010, dated 2015)

Legend:
[1] = tested on: cigarette smoke-induced COPD (acute 4 day); assay: Acute (4 day) cigarette smoke exposure COPD model; format: in vivo, female C57Bl/6 mice
Procedure: The efficacy of GSNOR inhibitors was assessed in a mouse model of chronic obstructive pulmonary disease (COPD) induced by short duration (4 days or 11 days) of exposure to cigarette smoke. Infiltration of inflammatory cells into the bronchoalveolar lavage fluid (BALF) and BALF levels of chemokines involved in inflammation and tissue turnover/repair were measured to assess the influences of GSNOR inhibitors on some of the early events associated with the initiation and progression of COPD.
Efficacy of GSNOR inhibitors against COPD was explored using acute (4 day) and subchronic (11 day) models of cigarette smoke-induced COPD in mice. […] In animal models, changes in lung pathology are only evident after extended (several months) duration of exposure to cigarette smoke, thus making chronic models prohibitive as effective screening tools. More recently, models exploring inflammatory responses after short duration (2 weeks or less) of smoke exposure in mice have been utilized as tools for screening efficacy and mechanisms of action of novel therapeutics against COPD. The key roles of inflammation in the initiation and progression of COPD, make these short duration models relevant for initial tests of efficacy of novel therapeutics.
Acute (4 Day) Smoke Exposure Model: Female C57Bl/6 mice (N=8 per group) were exposed to cigarette smoke using a whole body exposure chamber. Mice were exposed daily for 4 consecutive days to 4 cycles of smoke from 6 sequential cigarettes (Kentucky 3R4F without filter) with a 30 minute smoke free interval between cycles. GSNOR inhibitors were administered daily via oral dosing at 10 mg/kg/day for 7 days starting 2 days prior to smoke exposure and continuing 1 day post-exposure. The effects of GSNOR inhibitors were assessed by quantitating the numbers of total cells, leukocytes, and leukocytes differentials in the BALF via light microscopy and the levels of BALF chemokines via ELISA at approximately 24 h after the last smoke exposure. The effect of GSNOR inhibitors were compared to vehicle treated controls. The PDE4 inhibitor, roflumilast, was used as the positive control for the study. A group of naïve mice (N=8) was exposed to air and used as a negative control for the study.

[2] = tested on: mouse model of ovalbumin (OVA)-induced asthma; assay: Mouse model of ovalbumin (OVA)-induced asthma: MCh-induced AHR (Penh) and eosinophil infiltrate in BALF; format: in vivo; conditions: three oral doses of 10 mg/kg at 48 h, 24 h, and 1 h prior to assessment; p<0.05
Procedure: A mouse model of ovalbumin (OVA)-induced asthma was used to screen GSNOR inhibitors for efficacy against methacholine (MCh)-induced bronchoconstriction/airway hyper-responsiveness. This is a widely used and well characterized model that presents with an acute, allergic asthma phenotype with similarities to human asthma. Efficacy of GSNOR inhibitors was assessed using a protocol in which GSNOR inhibitors were administered after OVA sensitization and airway challenge, and prior to challenge with MCh. Bronchoconstriction in response to challenge with increasing doses of MCh was assessed using whole body plethysmography (Penh; Buxco). The amount of eosinophil infiltrate into the bronchoaveolar lavage fluid (BALF) was also determined as a measure of lung inflammation. The effects of GSNOR inhibitors were compared to vehicles and to Combivent (inhaled; IH) as the positive control.
OVA (500 μg/ml) in PBS was mixed with equal volumes of 10% (w/v) aluminum potassium sulfate in distilled water and incubated for 60 min. at room temperature after adjustment to pH 6.5 using 10 N NaOH. After centrifugation at 750×g for 5 min, the OVA/alum pellet was resuspended to the original volume in distilled water. Mice received an intraperitoneal (IP) injection of 100 μg OVA (0.2 mL of 500 μg/mL in normal saline) complexed with alum on day 0. Mice were anesthetized by IP injection of a 0.2-mL mixture of ketamine and xylazine (0.44 and 6.3 mg/mL, respectively) in normal saline and were placed on a board in the supine position. Two hundred fifty micrograms (100 μl of a 2.5 mg/ml) of OVA (on day 8) and 125 μg (50 μl of 2.5 mg/ml) OVA (on days 15, 18, and 21) were placed on the back of the tongue of each animal.
In vivo airway responsiveness to methacholine was measured 24 h after the last OVA challenge in conscious, freely moving, spontaneously breathing mice with whole body plethysmography using a Buxco chamber (Wilmington, N.C.). […] The degree of bronchoconstriction was expressed as enhanced pause (Penh), a calculated dimensionless value, which correlates with the measurement of airway resistance, impedance, and intrapleural pressure in the same mouse. Penh readings were taken and averaged for 4 min. after each nebulization challenge. Penh is calculated as follows: Penh=[(Te/Tr−1)×(PEF/PIF)], where Te is expiration time, Tr is relaxation time, PEF is peak expiratory flow, and PIF is peak inspiratory flow×0.67 coefficient. […]
After measurement of airway hyper-reactivity, the mice were exsanguinated by cardiac puncture, and then BALF was collected from either both lungs or from the right lung after tying off the left lung at the mainstem bronchus. Total BALF cells were counted from a 0.05 mL aliquot, and the remaining fluid was centrifuged at 200×g for 10 min at 4° C. […]

[3] = oral 10 mg/kg/day for 7 days, vs vehicle treated controls, p<0.05

SMILES | BALF chemokines ([1]; acute 4 day smoke model) | effects compared to roflumilast (positive control) ([1]; acute 4 day smoke model) | decrease of eosinophils in BALF [1, 3] [%] | decrease of leukocytes in BALF [1, 3] [%] | decrease of macrophages in BALF [1, 3] [%] | decrease of neutrophils in BALF [1, 3] [%] | decrease of total cells in BALF [1, 3] [%] | decrease of eosinophil infiltration in BAL [2]
O=C(O)c1ccc(-c2ccc3cc(O)ccc3n2)cc1 [Example 3, 4-(6-hydroxyquinolin-2-yl)benzoic acid] | restored BALF chemokines towards levels observed in naïve mice | comparable to or greater than those observed for roflumilast | 95 | 80 | 75 | 84 | 66 | 42 % of vehicle control
O=C(O)c1ccc(-c2ccc3cc(O)ccc3n2)c(Cl)c1 [Example 8, 3-chloro-4-(6-hydroxyquinolin-2-yl)benzoic acid] |  |  |  |  |  |  |  | 37 % of vehicle control
